Test results taken from patent US20220395472A1 (Dermavant Sciences GmbH, priority 2021, published 2022).

Tests used:
[1] = system: adults with plaque psoriasis; assay: Long-term extension study (PSOARING 3): % BSA affected; type: in vivo, human
Description: The % BSA affected is an estimate of the percentage of total involved skin with psoriasis. For the purpose of clinical estimation, the total palmar surface of the subject's palm and digits was assumed to be approximately equivalent to 1% BSA. The % BSA affected by psoriasis was evaluated (from 0% to 100%). Details on calculation of approximate % BSA involvement in each subject (total and individual) can be found in Appendix 2 of the protocol. Percent BSA is a static assessment made without reference to previous scores.
At Screening, Baseline, and for all efficacy assessments, lesions on the subject's scalp, palms, fingernails, toenails, and soles were not included in the calculation of % BSA affected as these areas were excluded from the efficacy analyses.

[2] = system: adults with plaque psoriasis; assay: Long-term extension study (PSOARING 3): PASI score, PASI75, PASI90; type: in vivo, human
Source text: The PASI scoring system is a widely used, standard, clinical tool for assessing the severity of psoriasis that takes into account the overall severity of erythema (redness), induration (plaque thickness), scale, and the extent of % BSA affected with psoriasis. The 3 clinical signs are each graded on a 5 point scale (0 to 4) and the % BSA affected is scored on a 7 point scale (0 to 6) for each of the 4 specified body regions (head, upper extremities, trunk, and lower extremities). Individual scores are multiplied by a weighted factor for each body region; the sum of these scores gives the overall PASI score. Higher scores indicate more severe disease. PASI is a static assessment made without reference to previous scores. Details on PASI calculation can be found in Appendix 2 of the protocol.

[3] = Week 16 LOCF, Tapinarof (Pivotal)
[4] = Week 16 LOCF, Vehicle (Pivotal)
[5] = Week 16 OC, Tapinarof (Pivotal)
[6] = Week 40 LOCF, Tapinarof (Pivotal)
[7] = Week 40 LOCF, Vehicle (Pivotal)
[8] = Week 40 OC, Tapinarof (Pivotal)

## CC(C)c1c(O)cc(/C=C/c2ccccc2)cc1O [Tapinarof Cream 1%]
[1]; Baseline, Overall
  % BSA affected, Observed, Mean: 4.65 % BSA
  % BSA affected, Observed, Median: 3.00 % BSA
[1]; Baseline, Tapinarof (Pivotal)
  % BSA affected, Observed, Mean: 3.31 % BSA
  % BSA affected, Observed, Median: 2.00 % BSA
[1]; Week 16 LOCF, Overall
  % BSA affected, CFBL, Mean: −1.85 % BSA
  % BSA affected, CFBL, Median: −0.96 % BSA
  % BSA affected, Observed, Mean: 2.82 % BSA
  % BSA affected, Observed, Median: 1.20 % BSA
  % BSA affected, Percent CFBL, Mean: −20.99%
  % BSA affected, Percent CFBL, Median: −46.13%
[1]; [3]
  % BSA affected, CFBL, Mean: −0.77 % BSA
  % BSA affected, CFBL, Median: −0.20 % BSA
  % BSA affected, Observed, Mean: 2.54 % BSA
  % BSA affected, Observed, Median: 1.00 % BSA
  % BSA affected, Percent CFBL, Mean: −5.67%
  % BSA affected, Percent CFBL, Median: −33.33%
[1]; [4]
  % BSA affected, CFBL, Mean: −3.96 % BSA
  % BSA affected, CFBL, Median: −2.98 % BSA
  % BSA affected, Observed, Mean: 3.36 % BSA
  % BSA affected, Observed, Median: 1.80 % BSA
  % BSA affected, Percent CFBL, Mean: −47.15%
  % BSA affected, Percent CFBL, Median: −63.42%
[1]; Week 16 OC, Overall
  % BSA affected, CFBL, Mean: −2.11 % BSA
  % BSA affected, CFBL, Median: −1.00 % BSA
  % BSA affected, Observed, Mean: 2.28 % BSA
  % BSA affected, Observed, Median: 1.02 % BSA
  % BSA affected, Percent CFBL, Mean: −31.25%
  % BSA affected, Percent CFBL, Median: −50.00%
[1]; [5]
  % BSA affected, CFBL, Mean: −0.97 % BSA
  % BSA affected, CFBL, Median: −0.23 % BSA
  % BSA affected, Observed, Mean: 1.97 % BSA
  % BSA affected, Observed, Median: 1.00 % BSA
  % BSA affected, Percent CFBL, Mean: −18.46%
  % BSA affected, Percent CFBL, Median: −36.96%
[1]; Week 16 OC, Vehicle (Pivotal)
  % BSA affected, CFBL, Mean: −4.40 % BSA
  % BSA affected, CFBL, Median: −3.18 % BSA
  % BSA affected, Observed, Mean: 2.89 % BSA
  % BSA affected, Observed, Median: 1.50 % BSA
  % BSA affected, Percent CFBL, Mean: −53.18%
  % BSA affected, Percent CFBL, Median: −66.67%
[1]; Week 40 LOCF, Overall
  % BSA affected, CFBL, Mean: −2.04 % BSA
  % BSA affected, CFBL, Median: −1.00 % BSA
  % BSA affected, Observed, Mean: 2.63 % BSA
  % BSA affected, Observed, Median: 1.00 % BSA
  % BSA affected, Percent CFBL, Mean: −16.29%
  % BSA affected, Percent CFBL, Median: −55.78%
[1]; [6]
  % BSA affected, CFBL, Mean: −0.88 % BSA
  % BSA affected, CFBL, Median: −0.30 % BSA
  % BSA affected, Observed, Mean: 2.44 % BSA
  % BSA affected, Observed, Median: 1.00 % BSA
  % BSA affected, Percent CFBL, Mean: −0.11%
  % BSA affected, Percent CFBL, Median: −46.61%
[1]; [7]
  % BSA affected, CFBL, Mean: −4.33 % BSA
  % BSA affected, CFBL, Median: −3.30 % BSA
  % BSA affected, Observed, Mean: 2.99 % BSA
  % BSA affected, Observed, Median: 1.00 % BSA
  % BSA affected, Percent CFBL, Mean: −43.91%
  % BSA affected, Percent CFBL, Median: −75.06%
[1]; Week 40 OC, Overall
  % BSA affected, CFBL, Mean: −2.35 % BSA
  % BSA affected, CFBL, Median: −1.50 % BSA
  % BSA affected, Observed, Mean: 1.85 % BSA
  % BSA affected, Observed, Median: 0.72 % BSA
  % BSA affected, Percent CFBL, Mean: −35.43%
  % BSA affected, Percent CFBL, Median: −67.00%
[1]; [8]
  % BSA affected, CFBL, Mean: −0.93 % BSA
  % BSA affected, CFBL, Median: −0.49 % BSA
  % BSA affected, Observed, Mean: 1.75 % BSA
  % BSA affected, Observed, Median: 0.68 % BSA
  % BSA affected, Percent CFBL, Mean: −21.60%
  % BSA affected, Percent CFBL, Median: −57.39%
[1]; Week 40 OC, Vehicle (Pivotal)
  % BSA affected, CFBL, Mean: −5.30 % BSA
  % BSA affected, CFBL, Median: −4.49 % BSA
  % BSA affected, Observed, Mean: 2.07 % BSA
  % BSA affected, Observed, Median: 0.80 % BSA
  % BSA affected, Percent CFBL, Mean: −60.22%
  % BSA affected, Percent CFBL, Median: −86.06%
[2]; Baseline, Overall
  PASI, Observed, Mean: 4.76
  PASI, Observed, Median: 3.40
[2]; Baseline, Tapinarof (Pivotal)
  PASI, Observed, Mean: 3.28
  PASI, Observed, Median: 2.30
[2]; Week 16 LOCF, Overall
  PASI, CFBL, Mean: −1.80
  PASI, CFBL, Median: −0.90
  PASI, Observed, Mean: 2.99
  PASI, Observed, Median: 1.80
  PASI, Percent CFBL, Mean: −20.93%
  PASI, Percent CFBL, Median: −40.91%
[2]; [3]
  PASI, CFBL, Mean: −0.54
  PASI, CFBL, Median: −0.20
  PASI, Observed, Mean: 2.74
  PASI, Observed, Median: 1.80
  PASI, Percent CFBL, Mean: −3.20%
  PASI, Percent CFBL, Median: −25.00%
[2]; [4]
  PASI, CFBL, Mean: −4.24
  PASI, CFBL, Median: −3.80
  PASI, Observed, Mean: 3.47
  PASI, Observed, Median: 2.40
  PASI, Percent CFBL, Mean: −51.02%
  PASI, Percent CFBL, Median: −59.38%
[2]; Week 16 OC, Overall
  PASI, CFBL, Mean: −1.99
  PASI, CFBL, Median: −1.00
  PASI, Observed, Mean: 2.57
  PASI, Observed, Median: 1.80
  PASI, Percent CFBL, Mean: −25.35%
  PASI, Percent CFBL, Median: −44.72%
[2]; [5]
  PASI, CFBL, Mean: −0.67
  PASI, CFBL, Median: −0.40
  PASI, Observed, Mean: 2.38
  PASI, Observed, Median: 1.60
  PASI, Percent CFBL, Mean: −7.79%
  PASI, Percent CFBL, Median: −30.00%
[2]; Week 16 OC, Vehicle (Pivotal)
  PASI, CFBL, Mean: −4.59
  PASI, CFBL, Median: −3.80
  PASI, Observed, Mean: 2.95
  PASI, Observed, Median: 2.10
  PASI, Percent CFBL, Mean: −55.09%
  PASI, Percent CFBL, Median: −64.02%
[2]; Week 40 LOCF, Overall
  PASI, CFBL, Median: −0.90
  PASI, Observed, Mean: 2.97
  PASI, Observed, Median: 1.80
  PASI, Percent CFBL, Mean: −10.45%
  PASI, Percent CFBL, Median: −44.44%
[2]; [6]
  PASI, CFBL, Mean: −0.48
  PASI, CFBL, Median: −0.20
  PASI, Observed, Mean: 2.80
  PASI, Observed, Median: 1.80
  PASI, Percent CFBL, Mean: 11.96%
  PASI, Percent CFBL, Median: −27.27%
[2]; [7]
  PASI, CFBL, Mean: −4.42
  PASI, CFBL, Median: −3.90
  PASI, Observed, Mean: 3.28
  PASI, Observed, Median: 2.00
  PASI, Percent CFBL, Mean: −48.42%
  PASI, Percent CFBL, Median: −68.66%
[2]; Week 40 OC, Overall
  PASI, CFBL, Mean: −2.14
  PASI, CFBL, Median: −1.20
  PASI, Observed, Mean: 2.36
  PASI, Observed, Median: 1.60
  PASI, Percent CFBL, Mean: −16.18%
  PASI, Percent CFBL, Median: −56.70%
[2]; [8]
  PASI, CFBL, Mean: −0.51
  PASI, CFBL, Median: −0.30
  PASI, Observed, Mean: 2.38
  PASI, Observed, Median: 1.60
  PASI, Percent CFBL, Mean: 8.49%
  PASI, Percent CFBL, Median: −35.24%
[2]; Week 40 OC, Vehicle (Pivotal)
  PASI, CFBL, Mean: −5.53
  PASI, CFBL, Median: −4.80
  PASI, Observed, Mean: 2.31
  PASI, Observed, Median: 1.40
  PASI, Percent CFBL, Mean: −60.12%
  PASI, Percent CFBL, Median: −76.39%
